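Cultured in 96-well plates, cells were exposed to test compound for 48 hours across five concentrations. Abbreviation: GI50, concentration required for 50% inhibition of growth. TGI denotes the concentration required for complete inhibition of growth.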
Experiments:
Assay in all cases: growth of human tumour cells (NCI), 48 h
RPMI-8226 leukemia = system: RPMI-8226 leukemia
A549 NSCLC = system: A549 NSCLC
786-0 renal = system: 786-0 renal
RXF 393 renal = system: RXF 393 renal
OVCAR-8 ovarian = system: OVCAR-8 ovarian
MALME-3M melanoma = system: MALME-3M melanoma
SNB-75 CNS = system: SNB-75 CNS
MCF7 breast = system: MCF7 breast

SMILES | GI50 (RPMI-8226 leukemia) [µM] | TGI (RPMI-8226 leukemia) [µM] | GI50 (A549 NSCLC) [µM] | TGI (A549 NSCLC) [µM] | GI50 (786-0 renal) [µM] | TGI (786-0 renal) [µM] | GI50 (RXF 393 renal) [µM] | TGI (RXF 393 renal) [µM] | GI50 (OVCAR-8 ovarian) [µM] | TGI (OVCAR-8 ovarian) [µM] | GI50 (MALME-3M melanoma) [µM] | TGI (MALME-3M melanoma) [µM] | GI50 (SNB-75 CNS) [µM] | TGI (SNB-75 CNS) [µM] | GI50 (MCF7 breast) [µM] | TGI (MCF7 breast) [µM]
O=C(Nc1ccc(Oc2ccc(F)cc2)cc1)[C@@H]1C[C@@H](Cc2ccc(F)cc2)CN1C(=O)Cn1ccnn1 | 3.74 | 26.4 | 5.21 | > 50.4 | 10.5 | 34.2 | 2.85 | 11.6 | 7.16 | 31.9 | 9.49 | 26.1 | 4.03 | 31.8 | 3.74 | 17.5
O=C1CC(c2c[nH]c3ccc(F)cc23)C(=O)N1 (stereo unspecified) | > 100 | > 100 | > 100 | > 100 | > 100 | > 100 | > 100 | > 100 | > 100 | > 100 | > 100 | > 100 | > 100 | > 100 | > 100 | > 100
Cn1cc(/C=C\[N+](=O)[O-])c2ccccc21 | 16.1 | 53.4 | 46.4 | > 100 | > 100 | > 100 | 17.6 | 32.3 | 26.9 | 86.1 | > 100 | > 100 | 26.2 | 75.8 | 21 | 80.6
c1cc(N[C@@H]2CCNC2)nc(-c2cnc3ccc(-c4cn[nH]c4)cn23)c1 | 11 | 43.9 | 22.8 | > 100 | 10.6 | > 83.1 | 2.56 | 11.7 | 6.47 | > 92.8 | 6.98 | 26.9 | 1.88 | 5.77 | 3.31 | 20.4
CCOC(=O)CSc1cc(Cl)c(C)cc1S(=O)(=O)/N=C(/N=C/c1ccc([N+](=O)[O-])s1)NNC | 36.7 | > 100 | 32.7 | > 100 | 20.2 | 42.5 | 22 | > 100 | 32.7 | 80.2 | 19.9 | 55.3 | – | – | 32.6 | > 100
Cc1ccccc1N=Nc1c(O)ccc2ccccc12 | – | > 100 | – | > 100 | – | > 100 | – | > 100 | – | > 100 | – | > 100 | – | > 100 | – | –
COc1cc(/C=C/C(=O)c2cccc(-n3cc(-c4cc(OC)c(OC)c(OC)c4)[nH]c3=O)c2)cc(OC)c1OC | 0.238 | 0.733 | 3.03 | 18.5 | 1.59 | 3.14 | 1.62 | 3.41 | 2.32 | 8.9 | 1.8 | 3.7 | 5.13 | 21 | 0.479 | 2.44
CSC1=NC(=Nc2c(C)cccc2C)C2(CCC(C(C)(C)C)CC2)N1c1ccc(Cl)cc1 (stereo unspecified) | 6.35 | > 100 | – | – | 68.7 | > 100 | 52.4 | > 100 | 15.1 | > 100 | 42.6 | > 100 | > 100 | > 100 | 26.5 | > 100
CCCCN(CCCC)C(=O)[C@H](CC)[C@@H]1CC[C@@H](C)[C@@H]([C@H](C)[C@@H](O)[C@@H](C)C(=O)[C@H](CC)C2O[C@]3(C=C[C@@H](O)[C@]4(CC[C@@](C)([C@H]5CC[C@](O)(CC)[C@H](C)O5)O4)O3)[C@H](C)C[C@@H]2C)O1 (stereo partly specified) | 1.79 | 5.85 | 3.12 | 34.4 | 2.49 | 7.44 | 1.59 | 3.37 | 3.43 | 65.4 | 1.87 | 4.16 | 1.78 | 26.9 | 2.4 | 7.77
CCOC(=O)[C@@H](C)C[C@H](Cc1ccccc1)NC(=O)c1csc([C@@H](C[C@H](C(C)C)N(C)C(=O)[C@@H](NC(=O)[C@H]2CCCCN2C)C(C)(C)CC)OC(C)=O)n1 | < 0.00167 | 4.18 | < 0.00167 | > 16.7 | < 0.00167 | 4.86 | – | – | 0.00231 | > 16.7 | < 0.00167 | 3.68 | < 0.00167 | 13.9 | < 0.00167 | > 16.7
C/C(=N\O)c1ccc2ccc3ccccc3c2c1 | – | > 100 | – | 79.8 | – | > 100 | – | > 100 | – | 61.4 | – | 50.5 | – | > 100 | – | > 100
O=C1/C(=C/c2ccc(Cl)c(Cl)c2)CN(C(=O)C(Cl)Cl)C/C1=C\c1ccc(Cl)c(Cl)c1 | 0.0285 | 0.485 | 0.22 | 0.908 | 0.151 | 0.306 | 0.164 | 0.337 | 0.0505 | 1.51 | 0.237 | 0.669 | 0.174 | 0.484 | 0.037 | 1.37
CSc1ccc(C2=C(c3ccccc3)C(=O)OC2)cc1 | – | – | 0.677 | > 100 | 1.21 | 19.7 | 1.87 | – | 0.639 | > 100 | 3.29 | 64.1 | 5.67 | > 100 | 0.81 | –
Clc1nccc2c(-c3csc(-c4c[nH]c5ccc(Br)cc45)n3)c[nH]c12 | 4.03 | 39 | 3.83 | 12.8 | 1.37 | 2.93 | 1.48 | 3.43 | 3.65 | 16.2 | – | – | 2.37 | 10.9 | 2.2 | 11.6
NC(N)=N/N=C/c1c(-c2ccsc2)nc2n1CCS2 | 31.9 | > 100 | 73.7 | > 100 | 15.4 | 38.7 | 30.5 | > 100 | 49 | > 100 | – | – | – | – | 18 | 50.2
COc1cccc(/C=C/C(=O)c2ccc3cc(OC)ccc3c2)c1 | 10.8 | 34.8 | 15.5 | 49.4 | 10.9 | 19.2 | – | – | 10.6 | 33.3 | – | – | 0.066 | 14.6 | 15.4 | > 50
COc1cccc2c1-c1nc(N)c3c(OC)cccc3c1C2=O | – | > 100 | – | > 100 | – | > 100 | – | – | – | > 100 | – | > 100 | – | 46.4 | – | > 100
